The subject of data set [1] is HepG2. Conditions: CC50 HepG2 (µM).
Data set [2] concerns K. pneumoniae CI 138-16357-20362, PmxR. Conditions: MIC K. pneumoniae CI 138-16357-20362, PmxR (µg/mL).
Data set [3] has as its system S. aureus ATCC 25923, MSSA. The conditions noted are these: MIC S. aureus ATCC 25923, MSSA (µg/mL).
Data set [4] deals with P. aeruginosa PA9704, PmxR. The conditions noted are these: MIC P. aeruginosa PA9704, PmxR (µg/mL).
Data set [5] deals with P. aeruginosa FADDI-PA070, PmxR. Conditions: MIC P. aeruginosa FADDI-PA070, PmxR (µg/mL).
Data set [6] concerns A. baumannii CI Ptyela 100734512:2, PmxR. Conditions: MIC A. baumannii CI Ptyela 100734512:2, PmxR (µg/mL).
In data set [7] the test system is K. pneumoniae CI Koprana 100650661:1, PmxR. The conditions noted are these: MIC K. pneumoniae CI Koprana 100650661:1, PmxR (µg/mL).
Data set [8] has as its system K. pneumoniae CI 138-16357-20362, PmxR. The data set can be described thus: microbe, parasite or virus in culture. The format is cell-based, Klebsiella pneumoniae. Conditions: carbapenem & polymyxin resistant clinical isolate; MHB, 5 × 10^5 CFU/mL, 18 h at 37 °C. Here is the method: (§1) Bacteria were either obtained from American Type Culture Collection (ATCC; Manassas, VA, USA) or independent academic clinical isolate collections, as listed in Table S2. Bacteria were cultured in nutrient broth (NB; Bacto Laboratories, catalog no. 234000) or Muller Hinton broth (MHB; Bacto Laboratories, catalog no. 211443) at 37 °C overnight with shaking (∼180 rpm). A sample of each culture was then diluted 50-fold in fresh MHB and incubated at 37 °C for 1.5–3 h with shaking (∼180 rpm). Compound stock solutions were prepared as 0.64 or 2.56 mg/mL in water. The compounds, at twice the final desired concentration, were serially diluted 2-fold across the wells of 96-well plates (Polystyrene, Corning, catalogue No. 3370). Mid log phase bacterial cultures (after 1.5–3 h incubation) were diluted to a final concentration of 5 × 10^5 colony forming units (CFU)/mL, and 50 μL was added to each well giving a final compound concentration range of 32 μg/mL to 0.015 μg/mL (128–0.06 μg/mL for colistin and polymyxin B against the polymyxin resistant clinical isolates). MICs were determined visually after 18 h of incubation at 37 °C, with the MIC defined as the lowest compound concentration at which no bacterial growth was visible.
(§2) Table S2. Bacterial strains used for Minimum Inhibitory Concentration (MIC) […]
(§3) Organism Strain Strain description Strain Source
(§4) Escherichia coli ATCC 25922 FDA strain Seattle 1946 ATCC
(§5) Klebsiella pneumoniae ATCC 13883 Control strain ATCC
(§6) Klebsiella pneumoniae ATCC 700603 Multi-drug resistant ATCC
(§7) Klebsiella pneumoniae BAA-2146 Metallo-beta-lactamase- ATCC
(§8) Acinetobacter baumannii ATCC 19606 Type strain ATCC
(§9) Pseudomonas aeruginosa ATCC 27853 Type strain ATCC
(§10) Pseudomonas aeruginosa FADDI-PA070 Clinical isolate, Nation and Li labs, polymyxin resistant Monash University
(§11) Clinical isolate, Wang Hengzhuang, Pseudomonas aeruginosa PA9704 polymyxin resistant University Hospital of […]
(§12) Ptyela Clinical isolate, Ilias Karaiskos and Acinetobacter baumannii Carbapenem & Helen Giamarellou
(§13) Clinical isolate, Medicine, Hygeia
(§14) Klebsiella pneumoniae Koprana Carbapenem, & General Hospital, […]
(§15) Clinical isolate, (Instituto Dante […]
(§16) polymyxin resistant Cardiologia, São […]

The test system of data set [9] is K. pneumoniae CI Koprana 100650661:1, PmxR. Put plainly: microbe, parasite or virus in culture. The format is cell-based, Klebsiella pneumoniae. The conditions noted are these: carbapenem & polymyxin resistant clinical isolate; MHB, 5 × 10^5 CFU/mL, 18 h at 37 °C. How it is done: as §1, §2, §3, §4, §5, §6, §7, §8, §9, §10, §11, §12, §13, §14, §15, §16

The structures appear in SMILES notation. Values after ≈ are worked out from the molar mass of the structure shown. Bridge positions count the residues as written; N and C are the ends. Square brackets hold non-standard residues; d marks the D form. Peptide text beside a SMILES is read from it. * marks the point of attachment. Bip = N[C@@H](Cc1ccc(-c2ccccc2)cc1)C(=O)O; dBip = N[C@H](Cc1ccc(-c2ccccc2)cc1)C(=O)O; Gly(octyl) = CCCCCCCC[C@H](N)C(=O)O; Octanoyl = CCCCCCCC(=O)*; Dab = NCC[C@H](N)C(=O)O

The values that follow come from paper PMC4774972, “Activity and Predicted Nephrotoxicity of Synthetic Antibiotics Based on Polymyxin B” (Journal of Medicinal Chemistry, 2016).

`CCCCCCCC(=O)N[C@@H](CCN)C(=O)N[C@H](C(=O)N[C@@H](CCN)C(=O)N[C@H]1CCNC(=O)[C@H]([C@@H](C)O)NC(=O)[C@H](CCN)NC(=O)[C@H](CCN)NC(=O)[C@H](CC(C)C)NC(=O)[C@@H](Cc2ccc(-c3ccccc3)cc2)NC(=O)[C@H](CCN)NC1=O)[C@@H](C)O` (Octanoyl-[Dab]T[Dab][Dab][Dab][dBip]L[Dab][Dab]T; lactam 4-C): the CC50 in data set [1] is 119 µM.
For `CCCCCCCC(=O)N[C@@H](CCN)C(=O)N[C@H](C(=O)N[C@@H](CCN)C(=O)N[C@H]1CCNC(=O)[C@H]([C@@H](C)O)NC(=O)[C@H](CCN)NC(=O)[C@H](CCN)NC(=O)[C@H](Cc2ccc(-c3ccccc3)cc2)NC(=O)[C@@H](Cc2ccccc2)NC(=O)[C@H](CCN)NC1=O)[C@@H](C)O` (Octanoyl-[Dab]T[Dab][Dab][Dab][dF][Bip][Dab][Dab]T; lactam 4-C), the CC50 in [1] is 117 µM. The MIC in [2] was more than 32 µg/mL.
In [1], `CCCCCCCC[C@@H]1NC(=O)[C@@H](Cc2ccccc2)NC(=O)[C@H](CCN)NC(=O)[C@@H](NC(=O)[C@H](CCN)NC(=O)[C@@H](NC(=O)[C@H](CCN)NC(=O)CCCCCCC)[C@@H](C)O)CCNC(=O)[C@H]([C@@H](C)O)NC(=O)[C@H](CCN)NC(=O)[C@H](CCN)NC1=O` (Octanoyl-[Dab]T[Dab][Dab][Dab][dF][Gly(octyl)][Dab][Dab]T; lactam 4-C) yielded a CC50 of 116 µM. In addition, the MIC in data set [3] was 8 µg/mL (≈ 6.42 µM); in data set [2] it was 32 µg/mL (≈ 25.7 µM); in data set [4] it was 8 µg/mL (≈ 6.42 µM); in data set [5], 16 µg/mL (≈ 12.8 µM); in [6], 8 µg/mL (≈ 6.42 µM); in data set [7] it was 32 µg/mL (≈ 25.7 µM).
Regarding `CCCCCCCC(=O)N[C@H](C(=O)N[C@@H](CCN)C(=O)N[C@H]1CCNC(=O)[C@H]([C@@H](C)O)NC(=O)[C@H](CCN)NC(=O)[C@H](CCN)NC(=O)[C@H](CC(C)C)NC(=O)[C@@H](Cc2ccccc2)NC(=O)[C@H](CCN)NC1=O)[C@@H](C)O` [Compound 12] (Octanoyl-T[Dab][Dab][Dab][dF]L[Dab][Dab]T; lactam 3-C), in [8], the “MIC K. pneumoniae CI 138-16357-20362, PmxR” value is more than 32 µg/mL. The “MIC K. pneumoniae CI Koprana 100650661:1, PmxR” value in [9] was more than 32 µg/mL. In [1], the CC50 is more than 300 µM. Besides, the MIC in data set [3], in [2], in [4], in data set [5], in [6] and in [7] was more than 32 µg/mL in each case.
For `CCCCCCCC(=O)N[C@@H](CCN)C(=O)N[C@H](C(=O)N[C@@H](CCN)C(=O)N[C@H]1CCNC(=O)[C@H]([C@@H](C)O)NC(=O)[C@H](CCNC(=O)[C@@H](N)CCCNC(=N)N)NC(=O)[C@H](CCN)NC(=O)[C@H](CC(C)C)NC(=O)[C@@H](Cc2ccccc2)NC(=O)[C@H](CCN)NC1=O)[C@@H](C)O` [Compound 18] (Octanoyl-[Dab]T[Dab][Dab][Dab][dF]L[Dab][Dab](Arg)T; lactam 4-C), the “MIC K. pneumoniae CI 138-16357-20362, PmxR” value in data set [8] was more than 32 µg/mL. For the same molecule, the “MIC K. pneumoniae CI Koprana 100650661:1, PmxR” value in [9] is more than 32 µg/mL. For the same molecule, in data set [1], the CC50 is more than 300 µM. The MIC in data set [3], in [2], in data set [4], in data set [5], in [6] and in data set [7] was more than 32 µg/mL in each case.
On to `CCCCCCCC(=O)N[C@@H](CCN)C(=O)N[C@H](C(=O)N[C@@H](CCN)C(=O)N[C@H]1CCNC(=O)[C@H]([C@@H](C)O)NC(=O)[C@H](CCNC(=O)[C@@H](N)CCC(=O)O)NC(=O)[C@H](CCN)NC(=O)[C@H](CC(C)C)NC(=O)[C@@H](Cc2ccccc2)NC(=O)[C@H](CCN)NC1=O)[C@@H](C)O` [Compound 19] (Octanoyl-[Dab]T[Dab][Dab][Dab][dF]L[Dab][Dab](Glu)T; lactam 4-C), for which, in [8], the “MIC K. pneumoniae CI 138-16357-20362, PmxR” value was more than 32 µg/mL. Further, in data set [9], the “MIC K. pneumoniae CI Koprana 100650661:1, PmxR” value was more than 32 µg/mL. The molecule further registered a CC50 in data set [1] of more than 300 µM. Further, the MIC in [3], in data set [2], in [4], in data set [5], in [6] and in data set [7] was more than 32 µg/mL in each case.
In the case of `CCCCCCCC(=O)N[C@@H](CCN)C(=O)N[C@H](C(=O)N[C@@H](CCN)C(=O)N[C@H]1CCNC(=O)[C@H]([C@@H](C)O)NC(=O)[C@H](CCN)NC(=O)[C@H](CCNC(=O)[C@@H](N)CCCNC(=N)N)NC(=O)[C@H](CC(C)C)NC(=O)[C@@H](Cc2ccccc2)NC(=O)[C@H](CCN)NC1=O)[C@@H](C)O` [Compound 22], the “MIC K. pneumoniae CI 138-16357-20362, PmxR” value in [8] is more than 32 µg/mL. Besides, in data set [9], the “MIC K. pneumoniae CI Koprana 100650661:1, PmxR” value was more than 32 µg/mL. The MIC in data set [3], in data set [2], in data set [4], in [5], in data set [6] and in data set [7] was more than 32 µg/mL in each case.
With `CCCCCCCC(=O)N[C@@H](CCN)C(=O)N[C@H](C(=O)N[C@@H](CCN)C(=O)N[C@H]1CCNC(=O)[C@H]([C@@H](C)O)NC(=O)[C@H](CCN)NC(=O)[C@H](Cc2ccc(N)cc2)NC(=O)[C@H](CC(C)C)NC(=O)[C@@H](Cc2ccccc2)NC(=O)[C@H](CCN)NC1=O)[C@@H](C)O` [Compound 25], in data set [8], the “MIC K. pneumoniae CI 138-16357-20362, PmxR” value is more than 32 µg/mL. Also, in data set [9], the “MIC K. pneumoniae CI Koprana 100650661:1, PmxR” value is more than 32 µg/mL. Further, the MIC in data set [3], in data set [2], in data set [4], in data set [6] and in [7] was more than 32 µg/mL in each case.
For the molecule `CCCCCCCC(=O)N[C@@H](CCN)C(=O)N[C@H](C(=O)N[C@@H](CCN)C(=O)N[C@H]1CCNC(=O)[C@H]([C@@H](C)O)NC(=O)[C@H](CCN)NC(=O)[C@H](CCCNC(=N)N)NC(=O)[C@H](CC(C)C)NC(=O)[C@@H](Cc2ccccc2)NC(=O)[C@H](CCN)NC1=O)[C@@H](C)O` [Compound 26], the “MIC K. pneumoniae CI 138-16357-20362, PmxR” value in data set [8] was more than 32 µg/mL. Further, the “MIC K. pneumoniae CI Koprana 100650661:1, PmxR” value in [9] was more than 32 µg/mL. The MIC in data set [3], in data set [2], in data set [4] and in data set [7] was more than 32 µg/mL each time.
With `CCCCCCCC(=O)N[C@@H](CCN)C(=O)N[C@H](C(=O)N[C@@H](CCN)C(=O)N[C@H]1CCNC(=O)[C@H]([C@@H](C)O)NC(=O)[C@H](CCN)NC(=O)[C@H](CCN)NC(=O)[C@H](CC(C)C)NC(=O)[C@@H](Cc2ccccc2)NC(=O)[C@H](CCNC(=O)[C@@H](N)CCCNC(=N)N)NC1=O)[C@@H](C)O` [Compound 31] (Octanoyl-[Dab]T[Dab][Dab][Dab](Arg)[dF]L[Dab][Dab]T; lactam 4-C), the “MIC K. pneumoniae CI 138-16357-20362, PmxR” value in data set [8] is more than 32 µg/mL. Moreover, the “MIC K. pneumoniae CI Koprana 100650661:1, PmxR” value in [9] is more than 32 µg/mL. The molecule further gave a CC50 in [1] of more than 300 µM. Moreover, the minimal inhibitory concentration (MIC) in data set [3], in [2], in [4], in [5], in data set [6] and in data set [7] was more than 32 µg/mL each time.

As a reminder, the MIC is the lowest concentration found to suppress growth. Higher therefore signals weaker potency.
